Assay results reported in publication PMC11418745 (Molecular cell, 2023).
Where two headings read alike, the source gives them in different places.

What was measured:
[1] = target: T1, SIR2-HerA complex (SIR2 NADase site) (Escherichia coli, UniProt A0ABF7PQ24); assay: ε-NAD+ fluorescence NADase assay; format: biochemical; settings: 0.5 μM protein, 20 mM Tris pH 8.0, 75 mM KCl, 2 mM MgCl2, 33 °C
EcSIR2 dodecamer = EcSIR2 dodecamer (Escherichia coli, UniProt A0ABF7PQ24); assay: cryo-EM structure, […] Å; format: binding; settings: active site of SIR2 dodecamer without HerA; not hydrolysed
[2] = target: SIR2-HerA complex (HerA nucleotide site) (Escherichia coli, UniProt A0ABF7PQ25); assay: ATPase kit, colorimetric phosphate; format: biochemical; settings: 20 mM Tris pH 8.0, 75 mM KCl, 2 mM MgCl2, 37 °C
[3] = target: T1, SIR2-HerA complex (SIR2 NADase site); assay: cryo-EM structure, […] Å; format: binding; settings: SIR2 active site; 12:6 complex (also 12:5 8SUB and 12:4 8SUW)
cryo-EM structure [4] = target: the molecule itself; assay: cryo-EM structure
cryo-EM structure [5] = target: the molecule itself; assay: cryo-EM structure; remark: listed apart in the source

NC(=O)c1ccc[n+]([C@@H]2O[C@H](COP(=O)(O)OP(=O)(O)OC[C@H]3O[C@@H](n4cnc5c4ncn4ccnc54)[C@H](O)[C@@H]3O)[C@@H](O)[C@H]2O)c1 [ε-NAD^+]
ε-NAD+ fluorescence NADase assay [1]: To test the NADase activities of the SIR2-HerA complex and SIR2 alone, ε-NAD^+ assays

NC(=O)c1ccc[n+]([C@@H]2O[C@H](COP(=O)(O)OP(=O)(O)OC[C@H]3O[C@@H](n4cnc5c(N)ncnc54)[C@H](O)[C@@H]3O)[C@@H](O)[C@H]2O)c1 [NAD^+]
cryo-EM structure, 3.6 Å (EcSIR2 dodecamer): identified an NAD^+ molecule in the active site of EcSIR2

Nc1ncnc2c1ncn2[C@@H]1O[C@H](COP(=O)(O)OP(=O)(O)OP(=O)(O)O)[C@@H](O)[C@H]1O [ATP]
ATPase kit, colorimetric phosphate [2]: the SIR2-HerA complex, not HerA alone, can hydrolyze ATP

Nc1ncnc2c1ncn2[C@@H]1O[C@H](COP(=O)(O)OP(=O)(O)OC[C@H]2OC(O)[C@H](O)[C@@H]2O)[C@@H](O)[C@H]1O (stereo partly shown) [ADPR]
cryo-EM structure, 2.83 Å [3]: an ADPR molecule, the product of NAD^+ hydrolysis, occupied the active site of EcSIR2

B1: E. coli SIR2 (EcSIR2) co-expressed with HerA as the SIR2-HerA complex (enzyme)
chain: MSIYQGGNKLNEDDFRSHVYSLCQLDNVGVLLGAGASVGCGGKTMKDVWKSFKQNYPELLGALIDKYLLVSQIDSDNNLVNVELLIDEATKFLSVAKTRRCEDEEEEFRKILSSLYKEVTKAALLTGEQFREKNQGKKDAFKYHKELISKLISNRQPGQSAPAIFTTNYDLALEWAAEDLGIQLFNGFSGLHTRQFYPQNFDLAFRNVNAKGEARFGHYHAYLYKLHGSLTWYQNDSLTVNEVSASQAYDEYINDIINKDDFYRGQHLIYPGANKYSHTIGFVYGEMFRRFGEFISKPQTALFINGFGFGDYHINRIILGALLNPSFHVVIYYPELKEAITKVSKGGGSEAEKAIVTLKNMAFNQVTVVGGGSKAYFNSFVEHLPYPVLFPRDNIVDELVEAIANLSKGEGNVPF
stoichiometry N (cryo-EM structure [4]): 12

B2: E. coli SIR2 (EcSIR2), expressed alone (enzyme)
chain: MSIYQGGNKLNEDDFRSHVYSLCQLDNVGVLLGAGASVGCGGKTMKDVWKSFKQNYPELLGALIDKYLLVSQIDSDNNLVNVELLIDEATKFLSVAKTRRCEDEEEEFRKILSSLYKEVTKAALLTGEQFREKNQGKKDAFKYHKELISKLISNRQPGQSAPAIFTTNYDLALEWAAEDLGIQLFNGFSGLHTRQFYPQNFDLAFRNVNAKGEARFGHYHAYLYKLHGSLTWYQNDSLTVNEVSASQAYDEYINDIINKDDFYRGQHLIYPGANKYSHTIGFVYGEMFRRFGEFISKPQTALFINGFGFGDYHINRIILGALLNPSFHVVIYYPELKEAITKVSKGGGSEAEKAIVTLKNMAFNQVTVVGGGSKAYFNSFVEHLPYPVLFPRDNIVDELVEAIANLSKGEGNVPF
stoichiometry N (cryo-EM structure [5]): 12

B3: E. coli HerA (EcHerA) co-expressed with SIR2 as the SIR2-HerA complex (enzyme)
chain: MSLFKLTEISAIGYVVGLEGERIRINLHEGLQGRLASHRKGVSSVTQPGDLIGFDAGNILVVARVTDMAFVEADKAHKANVGTSDLADIPLRQIIAYAIGFVKRELNGYVFISEDWRLPALGSSAVPLTSDFLNIIYSIDKEELPKAVELGVDSRTKTVKIFASVDKLLSRHLAVLGSTGYGKSNFNALLTRKVSEKYPNSRIVIFDINGEYAQAFTGIPNVKHTILGESPNVDSLEKKQQKGELYSEEYYCYKKIPYQALGFAGLIKLLRPSDKTQLPALRNALSAINRTHFKSRNIYLEKDDGETFLLYDDCRDTNQSKLAEWLDLLRRRRLKRTNVWPPFKSLATLVAEFGCVAADRSNGSKRDAFGFSNVLPLVKIIQQLAEDIRFKSIVNLNGGGELADGGTHWDKAMSDEVDYFFGKEKGQENDWNVHIVNMKNLAQDHAPMLLSALLEMFAEILFRRGQERSYPTVLLLEEAHHYLRDPYAEIDSQIKAYERLAKEGRKFKCSLIVSTQRPSELSPTVLAMCSNWFSLRLTNERDLQALRYAMESGNEQILKQISGLPRGDAVAFGSAFNLPVRISINQARPGPKSSDAVFSEEWANCTELRC
stoichiometry N (cryo-EM structure [4]): 6
